According to BindingDB's records for doi:10.7270/Q2H70D5W (University of Pittsburgh, 2007):

Target: Gag-Pol polyprotein (Human immunodeficiency virus type 1 group M subtype B (isolate HXB2), UniProt P04585)
Assay: concentration-response of HIV-1 RNase H blockers – biochemical, probe assessment, dose response (AID 652)
Conditions: pH 8; 23 °C

Going from `Nc1sc2c(c1C(=O)NC1CCS(=O)(=O)C1)CCC2` (centres undefined) [2-Amino-5,6-dihydro-4H-cyclopenta[b]thiophene-3-carboxylic acid (1,1-dioxo-tetrahydro-1lambda*6*-thiophen-3-yl)-amide] to `CCOC(=O)c1c(NC(=O)c2cc(C3CC3)on2)sc2c1CCCC2` [2-[(5-cyclopropylisoxazole-3-carbonyl)amino]-4,5,6,7-tetrahydrobenzothiophene-3-carboxylic acid ethyl ester], the IC50 falls from 26.8 µM to 1.7 µM (16-fold).

First: O=c1c2ccccc2[se]n1-c1ccccc1 [2-Phenyl-benzo[d]isoselenazol-3-one]
Second: O=c1c(=Cc2cccn2-c2ccccc2)sc2nc3ccccc3n12 [2-[(1-phenyl-2-pyrrolyl)methylidene]-1-thiazolo[3,2-a]benzimidazolone]
The IC50 of the first is higher: > 50 µM for the first, 2.83 µM for the second.

Compared with `Cc1cccc(C)c1NC(=O)CSCC(=O)c1ccc(O)c(O)c1` [2-[2-(3,4-dihydroxyphenyl)-2-oxoethyl]sulfanyl-N-(2,6-dimethylphenyl)acetamide], `Cc1cccc(C(=O)OCC(=O)Nc2ccc(N3CCCCC3)cc2)c1O` [2-hydroxy-3-methyl-benzoic acid [2-keto-2-(4-piperidinoanilino)ethyl] ester] is 3.5-fold higher in IC50: 3.8 µM for the first, 13.2 µM for the second. The first is the more potent here.

Going from `Cc1ccc2c(SCC(=O)NCc3ccco3)nc(-c3ccc(F)cc3)nc2c1` [2-[2-(4-Fluoro-phenyl)-7-methyl-quinazolin-4-ylsulfanyl]-N-furan-2-ylmethyl-acetamide] to `CCOC(=O)CSc1nc2cc(C(=O)NCc3ccco3)ccc2c(=O)n1-c1ccc(F)cc1` [2-[[3-(4-fluorophenyl)-7-(2-furfurylcarbamoyl)-4-keto-quinazolin-2-yl]thio]acetic acid ethyl ester], the IC50 rises from 3.34 µM to 13.1 µM (3.9-fold). The first is the more potent here.

First: NC(=O)c1cc(-c2ccccc2)sc1NC(=O)Cc1ccc(S(=O)(=O)N2CCOCC2)s1 [2-[2-(5-morpholin-4-ylsulfonylthiophen-2-yl)ethanoylamino]-5-phenyl-thiophene-3-carboxamide]
Second: Cc1noc(C)c1CSc1nc2cc(S(=O)(=O)N3CCOCC3)ccc2o1 [2-[(3,5-dimethyl-1,2-oxazol-4-yl)methylsulfanyl]-5-morpholin-4-ylsulfonyl-1,3-benzoxazole]
The IC50 of the first is 3.2-fold higher: 7.35 µM for the first, 2.3 µM for the second. The second is the more potent here.

Compared with `Cc1cc(C)c2c(=O)n(CC(=O)N3CCC(N4CCCCC4)CC3)sc2n1` [2-[2-keto-2-(4-piperidinopiperidino)ethyl]-4,6-dimethyl-isothiazolo[5,4-b]pyridin-3-one], `Cc1cccc(N2CCN(C(=O)Cn3sc4nc(C)cc(C)c4c3=O)CC2C)c1` (centres undefined) [2-[2-keto-2-[3-methyl-4-(m-tolyl)piperazino]ethyl]-4,6-dimethyl-isothiazolo[5,4-b]pyridin-3-one] is 9-fold lower in IC50: 38.4 µM for the first, 4.28 µM for the second.

Going from `Cc1cc(C)c(NC(=O)Cn2c(=O)n(Cc3ccco3)c(=O)c3ccccc32)c(C)c1` [2-[3-(2-furanylmethyl)-2,4-dioxo-1-quinazolinyl]-N-(2,4,6-trimethylphenyl)acetamide] to `COC(=O)c1ccc2c(=O)n(Cc3ccco3)c(SCC(=O)Nc3ccc(C)c(Cl)c3)nc2c1` [2-[[2-(3-chloro-4-methyl-anilino)-2-keto-ethyl]thio]-3-(2-furfuryl)-4-keto-quinazoline-7-carboxylic acid methyl ester], the IC50 falls from 47.8 µM to 2.79 µM (17-fold). The second is the more potent here.

Compared with `CN(c1ccccc1)c1ccc(C=c2s/c(=C(/C#N)C(=O)C(C)(C)C)n(Cc3ccco3)c2=O)cc1` [2-[3-(furan-2-ylmethyl)-5-[[4-(N-methylanilino)phenyl]methylidene]-4-oxo-1,3-thiazolidin-2-ylidene]-4,4-dimethyl-3-oxopentanenitrile], `COC(=O)c1ccc2c(=O)n(Cc3ccco3)c(SCC(=O)Nc3ccccc3Cl)nc2c1` [2-[[2-(2-chloroanilino)-2-keto-ethyl]thio]-3-(2-furfuryl)-4-keto-quinazoline-7-carboxylic acid methyl ester] is 2.3-fold higher in IC50: 2.01 µM for the first, 4.65 µM for the second. The first is the more potent here.

First: N#Cc1nc(-c2ccc(OCc3ccc(Cl)cc3)cc2)oc1NCc1cccnc1 [2-[4-(4-chlorobenzyl)oxyphenyl]-5-(3-pyridylmethylamino)oxazole-4-carbonitrile]
Second: Cc1cc(C(=O)CSc2nnc(-c3ccc(OC(F)F)cc3)o2)c(C)n1Cc1cccs1 [2-[[5-[4-(difluoromethoxy)phenyl]-1,3,4-oxadiazol-2-yl]sulfanyl]-1-[2,5-dimethyl-1-(thiophen-2-ylmethyl)pyrrol-3-yl]ethanone]
The IC50 of the first is 6.9-fold higher: 12.9 µM for the first, 1.88 µM for the second. The second is the more potent here.

`CCOC(=O)N1CCc2c(sc3c2C(=O)NC(c2ccc(-c4ccc(Cl)cc4)o2)N3)C1` (centres undefined) [2-[5-(4-chlorophenyl)-2-furanyl]-4-oxo-1,2,3,5,6,8-hexahydropyrido[2,3]thieno[2,4-d]pyrimidine-7-carboxylic acid ethyl ester] and `N#Cc1c(N)nc(SCC(=O)NC2CCCCC2)c(C#N)c1-c1ccc(Cl)cc1` [2-[6-amino-4-(4-chlorophenyl)-3,5-dicyanopyridin-2-yl]sulfanyl-N-cyclohexylacetamide] are within 1.5-fold of each other in IC50: 5.27 µM for the first, 4.42 µM for the second.

Compared with `Cc1cc(NC(=O)CSc2ccc(-c3nc4cc(C)c(C)cc4[nH]3)cn2)no1` [2-[5-(5,6-Dimethyl-1H-benzoimidazol-2-yl)-pyridin-2-ylsulfanyl]-N-(5-methyl-isoxazol-3-yl)-acetamide], `COc1ccc(-c2nsc(SCC(=O)Nc3cc(C)on3)n2)cc1` [2-[[3-(4-methoxyphenyl)-1,2,4-thiadiazol-5-yl]sulfanyl]-N-(5-methyl-1,2-oxazol-3-yl)acetamide] is 5.5-fold lower in IC50: 16.7 µM for the first, 3.01 µM for the second.

Compared with `COC(=O)c1ccccc1NC(=O)c1sc(=S)n(C)c1N` [2-[(4-amino-3-methyl-2-thioxo-4-thiazoline-5-carbonyl)amino]benzoic acid methyl ester], `COC(=O)c1ccccc1NC(=O)c1ccc2c(c1)C(=O)N(Cc1ccco1)C2=O` [2-[[2-(2-furfuryl)-1,3-diketo-isoindoline-5-carbonyl]amino]benzoic acid methyl ester] is 1.7-fold higher in IC50: 4.43 µM for the first, 7.36 µM for the second. The first is the more potent here.

First: Cc1ccc(/C=C/C2=Cc3c(sc(NC(=O)CSc4nnc(N)[nH]4)c3C#N)C(C)(C)C2)o1 [2-[(5-azanyl-1H-1,2,4-triazol-3-yl)sulfanyl]-N-[3-cyano-7,7-dimethyl-5-[(E)-2-(5-methylfuran-2-yl)ethenyl]-6H-1-benzothiophen-2-yl]ethanamide]
Second: N#Cc1c(SCC(=O)Nc2nccs2)nc2c(c1-c1ccco1)CCCC2 [2-[[3-cyano-4-(2-furanyl)-5,6,7,8-tetrahydroquinolin-2-yl]thio]-N-(2-thiazolyl)acetamide]
The IC50 of the first is 4.8-fold lower: 0.9 µM for the first, 4.3 µM for the second. The first is the more potent here.

First: Cc1cc(NC(=O)CSc2nc3cc4c(cc3c(=O)n2CCc2ccccc2)OCO4)no1 [2-[(8-keto-7-phenethyl-[1,3]dioxolo[4,5-g]quinazolin-6-yl)thio]-N-(5-methylisoxazol-3-yl)acetamide]
Second: C=CCNC(=O)c1c(N)n(-c2ccc3c(c2)OCO3)c2nc3ccccc3nc12 [2-amino-1-(1,3-benzodioxol-5-yl)-N-prop-2-enyl-3-pyrrolo[3,2-b]quinoxalinecarboxamide]
The IC50 of the first is 6.8-fold lower: 4.79 µM for the first, 32.7 µM for the second.

Compared with `CCc1ccc(NC(=O)CSc2nc3cc(C(=O)OC)ccc3c(=O)n2Cc2ccco2)cc1` [2-[[2-(4-ethylanilino)-2-keto-ethyl]thio]-3-(2-furfuryl)-4-keto-quinazoline-7-carboxylic acid methyl ester], `CCOC(=O)CSc1nc2cc(C(=O)NCc3ccco3)ccc2c(=O)n1C1CCCCC1` [2-[[3-cyclohexyl-7-(2-furfurylcarbamoyl)-4-keto-quinazolin-2-yl]thio]acetic acid ethyl ester] is 2.6-fold higher in IC50: 2.32 µM for the first, 6.07 µM for the second.

`Cc1cccc(-c2nsc(SCC(=O)Nc3nccs3)n2)c1` [2-[[3-(3-methylphenyl)-1,2,4-thiadiazol-5-yl]sulfanyl]-N-(1,3-thiazol-2-yl)acetamide] and `Cc1ccccc1NC(=O)CSc1nc2c(c(-c3ccco3)c1C#N)CCCC2` [2-[[3-cyano-4-(2-furanyl)-5,6,7,8-tetrahydroquinolin-2-yl]thio]-N-(2-methylphenyl)acetamide] are within 1.5-fold of each other in IC50: 3.81 µM for the first, 5.23 µM for the second.

First: CCOC(=O)c1c(NC(=O)c2ccc(-n3cnnn3)cc2)sc2c1CCCC2 [2-[[4-(tetrazol-1-yl)benzoyl]amino]-4,5,6,7-tetrahydrobenzothiophene-3-carboxylic acid ethyl ester]
Second: CCOC(=O)c1c(N)sc2c1CCC1C(=O)N(C3CCCCC3)C(=O)C21 (centres undefined) [2-amino-7-cyclohexyl-6,8-diketo-4,5,5a,8a-tetrahydrothien[2,3-e]isoindole-3-carboxylic acid ethyl ester]
The IC50 of the first is 1.7-fold lower: 2.81 µM for the first, 4.84 µM for the second.

Compared with `CC(C)OC(=O)CSc1nnc(-c2ccc(C(C)(C)C)cc2)n1N` [2-[[4-amino-5-(4-tert-butylphenyl)-1,2,4-triazol-3-yl]thio]acetic acid isopropyl ester], `CC(C)CNC(=O)c1c(N)n(N=Cc2ccccn2)c2nc3ccccc3nc12` [2-amino-N-(2-methylpropyl)-1-(2-pyridinylmethylideneamino)-3-pyrrolo[3,2-b]quinoxalinecarboxamide] is lower in IC50: > 50 µM for the first, 9.34 µM for the second. The second is the more potent here.

`CSc1ccc(C2c3ccc(=O)c4c(C)oc(C)c4c3OC(=N)C2C#N)cc1` (centres undefined) [2-amino-7-keto-8,10-dimethyl-4-[4-(methylthio)phenyl]-4H-furo[1,2]cyclohepta[4,6-d]pyran-3-carbonitrile] and `O=C(O)c1cc(S(=O)(=O)Nc2ccc3oc(=O)sc3c2)ccc1O` [2-hydroxy-5-[(2-keto-1,3-benzoxathiol-5-yl)sulfamoyl]benzoic acid] are within 1.5-fold of each other in IC50: 5.81 µM for the first, 7.39 µM for the second.

First: Cc1cc(C)c(C#N)c(=N)o1 [2-azanylidene-4,6-dimethyl-pyran-3-carbonitrile]
Second: Cc1cc(-c2nn3c(-c4ccccc4)nnc3s2)c2ccccc2n1 [2-methyl-4-(3-phenyl[1,2,4]triazolo[3,4-b][1,3,4]thiadiazol-6-yl)quinoline]
The IC50 of the first is 8.7-fold lower: 0.298 µM for the first, 2.6 µM for the second.

Compared with `O=C(c1ccc2c3c(cccc13)C(=O)N(O)C2=O)N1CCCCC1` [2-hydroxy-6-(piperidine-1-carbonyl)benzo[de]isoquinoline-1,3-dione], `c1ccc2c(c1)ncn2Cc1nnc2sc(-c3ccc4c(c3)OCO4)nn12` [3-(1-benzimidazolylmethyl)-6-(1,3-benzodioxol-5-yl)-[1,2,4]triazolo[3,4-b][1,3,4]thiadiazole] is 3.4-fold lower in IC50: 4.19 µM for the first, 1.23 µM for the second. The second is the more potent here.

Compared with `O=C(O)/C=C/c1ccc(O)c(O)c1` [3,4-Dihydroxycinnamate, XVII], `c1ccc(-c2ccc(-c3ccccn3)nn2)nc1` [3,6-bis(2-pyridinyl)pyridazine] is lower in IC50: > 50 µM for the first, 15.4 µM for the second. The second is the more potent here.
